Test system: influenza virus (WSN strain)
Type: cell-based

## DOCK11 #2: lentivirus-expressed shRNA against DOCK11 gene, SEQ ID NO: 2, used in Examples 3, 4, 6, 8, 12 (guide CCGGGTACTAGACACCATATCATTTCTCGAGAAATGATATGGTGTCTAGTACTTTTTG)
  localization of nucleoproteins of influenza virus in the nucleus of the host cell: suppressed

Reference: patent US10709727B2, “Antiviral drugs” (priority 2015, dated 2020)
